Columns and labels:
[1] = target: T1, SARS-CoV-2 S-protein RBD WT (Severe acute respiratory syndrome coronavirus 2, UniProt P0DTC2); format: binding; conditions: immobilized heparin, 1:1 Langmuir global fit, 25° C.
T1 construct: made in house; host or cells: Expi293F cells

[2] = target: T2, S-protein RBD (WT) (Severe acute respiratory syndrome coronavirus 2, UniProt P0DTC2); format: binding, SARS-CoV-2
T2 construct: made in house; host or cells: Expi293F cells

[3] = tested on: SARS-CoV-2 pseudotyped viral particles (wild-type); format: binding

Compound	ka [1]	kd [1]	IC50 ([2]; read-out: IC50 against the S-protein RBD binding to immobilized heparin)	inhibition of the S-protein-heparin interaction (FIG. 5) [2]	inhibition of pseudotyped viral particle binding to heparin surface compared with heparin control [3]
heparin	1427 1/MS	2.5 × 10^−4 1/S	0.056 µM	–	–
mucopolysaccharide polysulfate [MPS]	–	–	–	potently inhibited	stronger inhibition
sulfated lactobionic acid	–	–	–	more modest inhibition activity	–
pentosan polysulfate [PPS]	–	–	–	potently inhibited	stronger inhibition
O=S(=O)(O)c1cc2c(O)c(c1)Cc1cc(S(=O)(=O)O)cc(c1O)Cc1cc(S(=O)(=O)O)cc(c1O)Cc1cc(S(=O)(=O)O)cc(c1O)Cc1cc(S(=O)(=O)O)cc(c1O)Cc1cc(S(=O)(=O)O)cc(c1O)Cc1cc(S(=O)(=O)O)cc(c1O)Cc1cc(S(=O)(=O)O)cc(c1O)C2 [GL-522-Y-1]	–	–	–	more modest inhibition activity	–
